Data on four compounds can be found in PMC9791135, “A penetratin-derived peptide reduces the membrane permeabilization and cell toxicity of α-synuclein oligomers” (The Journal of Biological Chemistry, 2022).

Where a SMILES comes first, the peptide text is derived from it.

For data set [1], the target named is T1, α-syn (Homo sapiens, UniProt P37840).
T1 construct: made in house; host or cells: Escherichia coli BL21 (DE3), plasmid pET11-D
Description: ThT fluorescence assay of unseeded α-syn fibrillation in the presence of peptides. Type of data set: biochemical. The following applies: 1 mg/ml α-syn, 0–0.5 mg/ml peptide, 48 h; for ThT signal end level: unseeded ThT, 37 °C, versus α-syn alone. The method, then:
(§1) To test the effects of these selected nine peptides on the aggregation of α-syn, we performed a thioflavin T (ThT) fluorescence assay in the presence of 1 mg/ml α-syn and 0 to 0.5 mg/ml peptide for 48 h (raw data in Fig. S3). Furthermore, the peptides alone were monitored for self-fibrillation. […] High concentrations of p222, p194, and p249 led to a decline in ThT fluorescence after reaching a plateau, possibly because of the formation of insoluble amorphous species. We also carried out seeding experiments by adding 5% sonicated preaggregated α-syn fibrils to the ThT assay.
(§2) About 150 μl of 70 μM (1 mg/ml) α-syn, 40 μM ThT, and varying amounts of peptides (0, 0.06, 0.125, 0. 25, 0.375, and 0.5 mg/ml) were transferred in triplicates to a black COSTAR 96-well clear bottom plate (Nunc, Thermo Fisher Scientific), and including a 3 mm diameter glass bead (Glaswarenfabrik Karl Hecht GmbH & Co KG) per well to increase reproducibility ([100]). The plate was sealed with Crystal Clear sealing tape (Hampton Research) and incubated at 37 °C in a CLARIOstar Plus (BMG LABTECH) fluorescence plate reader. Fibrillation was carried out for ∼48 h with 300 rpm double orbital shaking between the readings for 372 s (excitation/emission: 448∕485 nm). Seeding experiments were performed using the same setting as for the fibrillation assay as described ([39]). Briefly, the experiments were done in triplicates in the presence of 0.05 mg/ml of α-syn fibril seeds (5% seeding) and 1 mg/ml of peptides in a solution of 1 mg/ml α-syn in 96-well plates.

Data set [2] is described as follows: Calcein release assay, substance alone. As to conditions: for Peptide concentration from which membrane toxicity is shown: peptide alone, calcein-filled DOPG LUVs, tested range 10^−1–10^−6 mg/ml. The method, then:
αSOs show cytotoxic properties, which have been attributed to their membrane-disrupting ability ([69]). To examine the effect of peptides on membrane permeabilization by αSOs, we used a simple calcein release assay. αSOs, peptides, and aSO–peptide mixtures at 10^−6 to 10^−1 mg/ml peptide were added to calcein-loaded DOPG vesicle, and the extent of calcein release was monitored for 30 min by the increase in fluorescence as calcein leaks out upon membrane permeabilization, leading to dilution and the loss of self-quenching. The time-dependent calcein release data from DOPG vesicles ([70], [71]) in the presence of peptides, αSOs, and αSO–peptides are shown in Figs. S9 and S10. In order to allow easy comparison of all peptides, the calcein release versus concentration (peptides and αSOs) were plotted at the plateau point of release (Fig. 5, A–C). […] Figure 5D compares calcein release percentages of data represented in Figure 5, A and B at peptide concentrations between 0.001 and 0.1 mg/ml, where we see the largest extent of calcein release in general.
Calcein-filled vesicles of DOPG were prepared as described before ([38]). Briefly, DOPG was dissolved in PBS to […], in the presence of calcein at self-quenching concentrations (70 mM) and subjected to 10 freeze–thaw cycles between liquid nitrogen and a 50 °C water bath. After 21 times extrusion through a 100 nm filter, free calcein was separated from vesicles with a PD-10 desalting column (GE Healthcare). Vesicles were stored at 4 °C and used for calcein release assays within 24 h.
Calcein release was measured by mixing peptides and/or αSOs at a final concentration of 10^−6 to 10^−1 mg/ml and 5.2 μg/ml, respectively, in 148 μl with 2 μl of calcein vesicles, and were then loaded onto a 96-well plate (Nunc, Thermo Fischer Scientific) in triplicate. The plate was sealed with Crystal clear sealing tape (Hampton Research), and fluorescence was measured (excitation: 485 nm and emission: 520 nm) for 1 h at 37 °C every 2 min with a 2 s autoshake before each reading on a fluorescence plate reader (Tecan). Finally, 2 μl Triton X-100 (0.2% [v/v]) was added to lyse vesicles, and the maximal fluorescence signal was measured for 20 min under the same reading condition. Background fluorescence was subtracted, and the average signal of calcein release before addition of Triton X-100 (F), after treatment with Triton X-100 (Ft) and for the buffer control (F0) were determined, and calcein release percentage was calculated as follow (Equation 1):(1) CalceinRelease%(CR%)=(F−F0)/(Ft−F0)

Data set [3] concerns SH-SY5Y cells. Description: MTT cell viability assay, substance alone. The following applies: for Cell viability (MTT): SH-SY5Y cells, 35 μg/ml peptide alone, 24 h. The method, then: (§3) The effect of the peptides on αSOs toxicity in SH-SY5Y cells using 3-(4, 5-dimethylthiazol-2-yl)-2,5-diphenyltetrazolium bromide (MTT) cell viability assay was also tested to complement our calcein data.
(§4) We used the MTT assay to measure cell viability after 24 h treatment with αSOs in the presence of peptides. SH-SY5Y cells were seeded in 96-well plates at a density of 5 × 10^4 cell/ml in Dulbecco's modified Eagle's medium supplemented with 10% FBS, 100 unit/ml penicillin, and […]. The cells were incubated in a humidified atmosphere incubator with 5% CO2 and 95% humidity at 37 °C for 24 h. The culture medium was then replaced with fresh medium containing 10 μM αSOs with peptides and incubated for another 24 h. Then the cell medium was replaced with a fresh medium containing 20% MTT (5 mg/ml), and the cells were incubated for an additional 4 h at 37 °C. Then 100 μl of dimethyl sulfoxide was added to dissolve formazan crystals by incubating for 30 min on a shaker at RT. Consequently, absorbance was measured by using a plate reader at 570 nm.
In general terms: Formazan colour is commonly taken as a measure of viable cells.

For data set [4], the system named is SH-SY5Y cells. The following applies: αSOs with peptide, MTT. As to the method:
as §3, §4

The nature of data set [5]: ThT monitoring of peptides alone for self-fibrillation. The data set is classed as physicochemical. As to conditions: peptide alone (controls 1 mg/mL), 37 °C with shaking. The method, then:
as §1
as §2, with “Seeding experiments were performed using the same setting as for the fibrillation assay as described ([39]). Briefly, the experiments were done in triplicates in the presence of 0.05 mg/ml of α-syn fibril seeds (5% seeding) and 1 mg/ml of peptides in a solution of 1 mg/ml α-syn in 96-well plates.” left out
[picture] […] The effect of the 9 peptides on α-syn fibrillation monitored by ThT fluorescence. […]

With `CC(C)C[C@H](NC(=O)[C@H](Cc1c[nH]cn1)NC(=O)[C@H](CO)NC(=O)[C@H](CO)NC(=O)[C@H](C)NC(=O)[C@@H](N)CO)C(=O)N[C@@H](Cc1c[nH]cn1)C(=O)N[C@@H](Cc1c[nH]cn1)C(=O)NCC(=O)N[C@@H](Cc1c[nH]cn1)C(=O)N[C@@H](CO)C(=O)NCC(=O)NCC(=O)O` [p168] (H-SASSHLHHGHSGG-OH), in data set [1], the “Effect on α-syn aggregation (ThT), in words” value (“Effect on α-syn aggregation” for short) was “did not change the lag phase duration”. The “Permeabilization of lipid vesicles by peptide alone” value in data set [2] (calcein-loaded DOPG vesicles, 10^−6 to 10^−1 mg/ml peptide, 37 °C, triplicate) was “did not permeabilize lipid vesicles”. Also, the “Cell viability (MTT)” value in data set [3] turned out to be 94%.
Regarding `CC[C@H](C)[C@H](NC(=O)[C@H](Cc1c[nH]c2ccccc12)NC(=O)[C@H](CCCNC(=N)N)NC(=O)[C@H](Cc1c[nH]c2ccccc12)NC(=O)[C@H](CCCCN)NC(=O)[C@@H](NC(=O)[C@H](CCCCN)NC(=O)[C@H](CCC(N)=O)NC(=O)[C@@H](N)CC(N)=O)[C@@H](C)CC)C(=O)N[C@@H](CCC(N)=O)C(=O)N[C@@H](CCCNC(=N)N)C(=O)N[C@@H](Cc1ccccc1)C(=O)N[C@@H](CCCNC(=N)N)C(=O)N[C@@H](CCCCN)C(=O)N[C@@H](CCCCN)C(=O)N[C@@H](CCSC)C(=O)O` [p235] (H-NQKIKWRWIQRFRKKM-OH; N-terminus and C-terminus assumed), in data set [1], the “Effect on α-syn aggregation” value is recorded as “slight aggregation-promoting effect” and the “ThT signal end level” value is reported as “↑↑”. Also, the “Peptide concentration from which membrane toxicity is shown” value (shortened to “Peptide concentration”) in data set [2] is > 10^−2 mg/ml. For the same compound, the “Toxicity to SH-SY5Y cells, in words” value in data set [3] is “slight toxicity”. In addition, the “Effect on cell survival in the presence of toxic αSOs, in words” value in data set [4] is recorded as “did not show positive effects”.
As for `CC[C@H](C)[C@H](NC(=O)[C@H](Cc1ccccc1)NC(=O)[C@H](Cc1c[nH]c2ccccc12)NC(=O)[C@H](CCCNC(=N)N)NC(=O)[C@H](CC(N)=O)NC(=O)[C@@H](NC(=O)[C@H](CCC(N)=O)NC(=O)[C@H](CCCCN)NC(=O)[C@@H](N)CCSC)[C@@H](C)CC)C(=O)N[C@@H](CCCNC(=N)N)C(=O)N[C@@H](Cc1c[nH]c2ccccc12)C(=O)N[C@@H](CCC(N)=O)C(=O)N[C@@H](CCCCN)C(=O)N[C@@H](CCCCN)C(=O)N[C@@H](CCCNC(=N)N)C(=O)N[C@@H](CCCCN)C(=O)O` [p249] (H-MKQINRWFIRWQKKRK-OH; N-terminus and C-terminus assumed), the “Effect on α-syn aggregation” value in data set [1] is reported as “slight aggregation-promoting effect”. The “Peptide concentration” value in data set [2] is on record as > 10^−2 mg/ml. Also, in data set [3], the “Toxicity to SH-SY5Y cells, in words” value is reported as “slight toxicity” and the “Cell viability (MTT)” value is recorded as 80%. Further, the “Effect on cell survival in the presence of toxic αSOs, in words” value in data set [4] is listed as “did not show positive effects”.
Regarding RQIKIWFQNRRFKWKK [p222], in data set [1], the “Effect on α-syn aggregation” value is “slight aggregation-promoting effect” and the “ThT signal end level” value is recorded as “↑↑”. Moreover, the “Self-fibrillation of the peptide alone” value in data set [5] was “slight self-fibrillation tendencies”. The “Peptide concentration” value in data set [2] was > 10^−4 mg/ml. In addition, in data set [3], the “Toxicity to SH-SY5Y cells, in words” value is given as “slight toxicity”.
